Source: PubChem BioAssay (NCI)
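All cell lines were grown in 96-well plates and treated with compound for 48 hours. TGI denotes the concentration required for complete inhibition of growth.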

Tests used:
Assay in all cases: NCI tumour cell line growth inhibition, 48 h
[1] = system: NCI-H23 lung
[2] = system: SF-295 CNS
[3] = system: COLO 205 colon
[4] = system: KM12 colon
[5] = system: DU-145 prostate
[6] = system: CCRF-CEM leukemia
[7] = system: HOP-92 NSCLC
[8] = system: BT-549 breast
[9] = system: SK-MEL-5 melanoma
[10] = system: PC-3 prostate
[11] = system: MDA-MB-435
[12] = system: UACC-62 melanoma
[13] = system: SNB-75 CNS
[14] = system: RPMI-8226 leukemia
[15] = system: MDA-N
[16] = system: SN12C renal
[17] = system: HS 578T breast
[18] = system: HCT-116 colon
[19] = system: MOLT-4 leukemia
[20] = system: HT29 colon
[21] = system: T-47D breast
[22] = system: ACHN renal
[23] = system: MALME-3M melanoma
[24] = system: SK-OV-3 ovarian
[25] = system: K-562 leukemia
[26] = system: SNB-19 CNS
[27] = system: IGROV1 ovarian
[28] = system: SF-539 CNS
[29] = system: A549 NSCLC
[30] = system: NCI/ADR-RES ovarian
[31] = system: EKVX NSCLC
[32] = system: SF-268 CNS
[33] = system: SW-620 colon
[34] = system: RXF 393 renal
[35] = system: HCT-15 colon
[36] = system: MDA-MB-231 breast
[37] = system: MCF7 breast
[38] = system: UACC-257 melanoma
[39] = system: TK-10 renal
[40] = system: NCI-H226 lung
[41] = system: OVCAR-5 ovarian
[42] = system: U251 CNS
[43] = system: NCI-H522 lung
[44] = system: OVCAR-8 ovarian
[45] = system: CAKI-1 renal
[46] = system: 786-0 renal
[47] = system: HL-60(TB) leukemia
[48] = system: M14 melanoma
[49] = system: SR leukemia
[50] = system: SK-MEL-2 melanoma
[51] = system: NCI-H460 lung
[52] = system: UO-31 renal
[53] = system: LOX IMVI melanoma
[54] = system: A498 renal
[55] = system: SK-MEL-28 melanoma
[56] = system: OVCAR-4 ovarian
[57] = system: HOP-62 NSCLC
[58] = system: OVCAR-3 ovarian
[59] = system: HCC-2998 colon

With `CCCC(CCC(N)=O)(CCC(N)=O)[N+](=O)[O-]` the TGI [1] was > 100 µM, the TGI [2] was > 100 µM and the TGI [3] was > 100 µM. For the same compound, the TGI [4] was > 100 µM, the TGI [5] was > 100 µM and the TGI [6] was > 100 µM. For the same compound, the TGI [7] was > 100 µM, the TGI [8] was > 100 µM and the TGI [9] was > 100 µM. For the same compound, the TGI [10] was > 100 µM, the TGI [11] was > 100 µM and the TGI [12] was > 100 µM. The TGI [13] was > 100 µM, the TGI [14] was > 100 µM and the TGI [15] was > 100 µM. The TGI [16] was > 100 µM, the TGI [17] was > 100 µM and the TGI [18] was > 100 µM. The TGI [19] was > 100 µM, the TGI [20] was > 100 µM and the TGI [21] was > 100 µM. The TGI [22] was > 100 µM, the TGI [23] was > 100 µM and the TGI [24] was > 100 µM. The TGI [25] was > 100 µM, the TGI [26] was > 100 µM and the TGI [27] was > 100 µM. For the same compound, the TGI [28] was > 100 µM, the TGI [29] was > 100 µM and the TGI [30] was > 100 µM. The TGI [31] was > 100 µM, the TGI [32] was > 100 µM and the TGI [33] was > 100 µM. The TGI [34] was > 100 µM, the TGI [35] was > 100 µM and the TGI [36] was > 100 µM. For the same compound, the TGI [37] was > 100 µM, the TGI [38] was > 100 µM and the TGI [39] was > 100 µM. The TGI [40] was > 100 µM, the TGI [41] was > 100 µM and the TGI [42] was > 100 µM. The TGI [43] was > 100 µM, the TGI [44] was > 100 µM and the TGI [45] was > 100 µM. For the same compound, the TGI [46] was > 100 µM, the TGI [47] was > 100 µM and the TGI [48] was > 100 µM. The TGI [49] was > 100 µM, the TGI [50] was > 100 µM and the TGI [51] was > 100 µM. For the same compound, the TGI [52] was > 100 µM.
For `[N-]=[N+]=NC1OC(=O)C(Cl)=C1N=P(c1ccccc1)(c1ccccc1)c1ccccc1` (configuration not stated), the TGI [2] was > 10 µM, the TGI [3] was > 10 µM and the TGI [4] was > 10 µM. The TGI [5] was > 10 µM, the TGI [6] was > 10 µM and the TGI [8] was > 10 µM. The TGI [9] was > 10 µM, the TGI [10] was > 10 µM and the TGI [11] was > 10 µM. The TGI [12] was > 10 µM, the TGI [13] was > 10 µM and the TGI [53] was > 10 µM. For the same compound, the TGI [14] was 8.33 µM, the TGI [15] was > 10 µM and the TGI [16] was > 10 µM. The TGI [17] was > 10 µM, the TGI [54] was > 10 µM and the TGI [18] was > 10 µM. For the same compound, the TGI [55] was > 10 µM, the TGI [56] was > 10 µM and the TGI [19] was 8.72 µM. The TGI [21] was > 10 µM, the TGI [22] was > 10 µM and the TGI [23] was > 10 µM. For the same compound, the TGI [24] was > 10 µM, the TGI [25] was > 10 µM and the TGI [26] was > 10 µM. The TGI [27] was > 10 µM, the TGI [28] was > 10 µM and the TGI [29] was > 10 µM. For the same compound, the TGI [30] was > 10 µM, the TGI [31] was > 10 µM and the TGI [32] was > 10 µM. The TGI [33] was > 10 µM, the TGI [34] was > 10 µM and the TGI [35] was > 10 µM. For the same compound, the TGI [36] was > 10 µM, the TGI [37] was > 10 µM and the TGI [38] was > 10 µM. For the same compound, the TGI [39] was > 10 µM, the TGI [57] was > 10 µM and the TGI [40] was > 10 µM. The TGI [41] was > 10 µM, the TGI [42] was > 10 µM and the TGI [43] was > 10 µM. For the same compound, the TGI [58] was > 10 µM, the TGI [44] was > 10 µM and the TGI [45] was > 10 µM. The TGI [46] was > 10 µM, the TGI [47] was > 10 µM and the TGI [48] was > 10 µM. For the same compound, the TGI [50] was > 10 µM, the TGI [51] was > 10 µM and the TGI [52] was > 10 µM. For the same compound, the TGI [59] was > 10 µM.
